Test results from patent US11980612B2, “Synergistic anti-inflammatory compositions” (The Procter & Gamble Company, priority 2020, dated 2024).
Values joined by “and” are separate entries in the source; they are usually repeats but may differ in a detail not shown here. Equal values may be shown once.

Columns and labels:
[1] = test system: PGE2 release from TERT keratinocytes (tKC); test: PGE2 assay: inhibition of PGE2 release from UVB-stressed TERT keratinocytes, normalized to ATP; assay type: cell-based, human; settings: PO 1 × 10−7 w/v %, actives alone or combination (observed), 15 mJ/cm2 UVB, 18-24 hours
Excerpt: Inhibiting the Cell's Inflammation Response to a Stressor-Prostaglandin E2 (“PGE2”) Assay.
PGE2 is a hormone-like substance that is known to participate in modulation of inflammation. Cellular inflammation is associated with a variety of hair, skin and scalp conditions, and thus inhibiting PGE2 activation vis-à-vis cellular inflammation may help treat these types of hair, skin and scalp conditions.
TERT keratinocytes (“tKC” are human keratinocytes which have been transfected with the human telomerase reverse transcriptase gene to immortalize the cells) were obtained from Jerry Shay, University of Texas, Southwestern and plated at 40,000 cells/well into 24-well plates in 1 ml/well volume. EpiLife Medium (Life Technologies cat #MEPICFPRF500) supplemented with keratinocyte growth supplement (Life technologies cat #S-001-5) was used as the assay media. The cells were grown to confluence/near confluence, (typically 24 hours after plating 40,000 cells/well in 24 well plate) and then subjected to 15 mJ/cm^2 UVB-stress (typically […] in BioSun). The test compositions (strobilurins, piroctone olamine, strobilurins+piroctone olamine, and positive control 10 uM idebenone) were added to replace the medium (EpiLife Medium with 0.1% final concentration of DMSO—briefly, 1000× stocks of actives and combinations made in 100% DMSO and diluted into Epilife media 1 to 1000), and the plates were incubated for 18-24 hours.
The supernatant is removed from each well, and the cells are rinsed with 2 ml/well medium (without supplements). A Cell Titer-Glo assay (Promega cat #G7571; Madison WI) is used to measure ATP activity, is conducted on the cells for normalization. The supernatant is tested in a PGE2 assay (Prostaglandin E2 Assay kit from Cisbio Bioassays cat #62P2APEB) according to the manufacturer's instructions. The PGE2 results are normalized to ATP activity. The PGE2 quantitation (pg/mL) from the supernatant is divided by the normalization factor (treatment ATP/control ATP).
Example Calculation to Compute PGE2 Inhibition by Strobilurin: • Luminescence of vehicle control in ATP assay=704567 • Luminescence of strobilurin treatment in ATP assay=678903 • Normalization factor for strobilurin treatment=1.038 • PGE2 quantitation for vehicle control=2458 pg/mL PGE2 • PGE2 quantitation for strobilurin treatment=2347 pg/mL PGE2 • Normalized PGE2 values • control=2458/1=2458 • strobilurin=2347/1.038=2261 • % inhibition for strobilurin=[100×(2458−[…])/2458]=8%
Student's T-Test (equal variance, 2 sided) are used to calculate p-values between observed combinations and expected combinations with p-value<0.05 considered statistically significant. Expected combination values are calculated by adding the PGE2 inhibition values of strobilurins alone and piroctone olamine alone. Synergy factor is simply the ratio of observed combination/expected combination. Synergy factors greater than 1.0 with a p-value<0.05 are deemed synergistic.

[2] = general statement, no method; cited from earlier work
[3] = strobilurin 1 × 10−7 w/v %, strobilurin:PO ratio 1:1
[4] = strobilurin 1 × 10−8 w/v %, strobilurin:PO ratio 1:10
[5] = strobilurin 1 × 10−9 w/v %, strobilurin:PO ratio 1:50
[6] = strobilurin 4 × 10−7 w/v %, strobilurin:PO ratio 4:1

Row | SMILES | % PGE2 Inhibition [1, 3] [%] | % PGE2 Inhibition [1, 4] [%] | % PGE2 Inhibition [1, 5] [%] | % PGE2 Inhibition [1, 6] | solubility in water [2]
1 | CNC(=O)/C(=N/OC)c1ccccc1CO/N=C(C)/C(=N/OC)C(/C)=N/OC [orysastrobin] | 8.2 | 15.6 | 1.1 | 4.7% | 
2 | Cc1cc(CC(C)CC(C)(C)C)n(O)c(=O)c1.NCCO (stereo not drawn) [PO, piroctone olamine] | 3.2 | 2.6 | 2.4 | 2.8% and 2.2% | 
3 | CON=C(C(=O)OC)c1ccccc1CON=C(C)c1cccc(C(F)(F)F)c1 [trifloxystrobin] | 3.2 | 0.5 | 0.7 | 8.3% | 
4 | CO/C=C(/C(=O)OC)c1ccccc1COc1cccc(C(F)(F)F)n1 [picoxystrobin] | 2.5 | 8.4 | 8.9 | 16.7% | 
5 | CNC(=O)/C(=N/OC)c1ccccc1COc1cc(C)ccc1C [dimoxystrobin] | 18.9 | 7.6 | 4.1 | 12.4% | 
6 | CO/N=C(/C1=NOCCO1)c1ccccc1Oc1ncnc(Oc2ccccc2Cl)c1F [fluoxastrobin] | 5.6 | 3.3 | 1 | 8.6% | 
7 | CO/N=C(/C(=O)OC)c1ccccc1COc1ccccc1C [kresoxim methyl] | 4.1 | 7.3 | 3.2 | 6.7% | 
8 | CO/C=C(/C(=O)OC)c1ccccc1Oc1cc(Oc2ccccc2C#N)ncn1 [azoxystrobin] | 8 | 1 | 1 | 13% | low solubility in water
